Our source for the IC50 values is patent US11787810B2, “Diacylglyceride O-acyltransferase 2 inhibitors” (Merck Sharp & Dohme Corp., priority 2020, dated 2023).

Each structure is given as a SMILES string.

Sequence of human DGAT2 (hDGAT2) (Q96PD7 whole entry): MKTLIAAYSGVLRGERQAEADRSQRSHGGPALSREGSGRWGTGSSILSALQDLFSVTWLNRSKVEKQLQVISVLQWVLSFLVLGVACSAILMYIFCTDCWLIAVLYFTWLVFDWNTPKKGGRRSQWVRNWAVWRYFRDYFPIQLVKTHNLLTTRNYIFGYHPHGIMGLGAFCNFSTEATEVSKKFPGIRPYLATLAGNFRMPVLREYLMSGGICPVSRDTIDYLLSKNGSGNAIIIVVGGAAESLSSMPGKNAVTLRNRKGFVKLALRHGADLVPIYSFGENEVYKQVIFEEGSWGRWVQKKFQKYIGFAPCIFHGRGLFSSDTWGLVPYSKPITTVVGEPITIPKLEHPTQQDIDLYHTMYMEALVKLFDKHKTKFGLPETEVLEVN

This assay addresses human DGAT2 (hDGAT2) (Homo sapiens (Human), UniProt Q96PD7). Kind of assay: DGAT2 enzymatic activity assay (13C18-triolein formation, LC/MS/MS). The assay is classed as biochemical. The conditions noted are these: hDGAT2 Sf-9 membrane prep, 25 μM diolein, 5 μM 13C oleoyl-CoA; read-out: Human DGAT2 IC50. As to the method: Sf-9 insect cells were maintained in Grace's insect cell culture medium with 10% heated-inactivated fetal bovine serum, 1% Pluronic F-68 and 0.14 μg/ml Kanamycine sulfate at 27° C. in a shaker incubator. After infection with untagged baculovirus expressing human DGAT2 (hDGAT2) at multiplicity of infection (MOI) 3 for 48 hours, cells were harvested. Cell pellets were suspended in buffer containing 10 mM Tris-HCl pH 7.5, 1 mM EDTA, 250 mM sucrose and Complete Protease Inhibitor Cocktail (Sigma Aldrich), and sonicated on ice. Cell debris were removed by centrifugation at 2000×g for 15 minutes. Membrane fractions were isolated by ultracentrifugation (100,000×g), resuspended in the same buffer, and frozen (−80° C.) for later use. The protein concentration was determined with the Pierce™ BCA Protein Assay Kit (Thermo Fisher Scientific). Expression of protein levels was analyzed by immunoblotting with rabbit anti-DGAT2 antibody (Abcam, ab102831) and donkey anti-rabbit IgG H&L Alexa Fluor® 647 (Abcam, ab150075) followed by detection using Typhoon FLA9000 (GE Healthcare).
LC/MS/MS analyses were performed using Thermal Fisher's LX4-TSQ Vantage system. This system consists of an Agilent binary high-performance liquid chromatography (HPLC) pumps and a TSQ Vantage triple quadrupole MS/MS instrument. For each sample, 2 μL samples from the top organic layer of in-plate liquid-liquid extraction were injected onto a Thermo Betabasic C4 column (2.1 mm×20 mm, 5 μm particle size). The samples were then eluted using the following conditions; mobile phase: Isopropanol:acetonitrile/10 mM ammonium formate=50/35/15 (v/v/v), flow rate: 0.8 mL/min, temperature: 25° C. Data was acquired in positive mode using a heated electrospray ionization (HESI) interface. The operational parameters for the TSQ Vantage MS/MS instrument were a spray voltage of 3000 V, capillary temperature of 280° C., vaporizer temperature 400° C., sheath gas 45 arbitrary unit, Aux gas 10 arbitrary units, S-lens 165 and collision gas 1.0 mTorr. […] (SRM) chromatograms of ^13C18-triolein (Q1: 920.8>Q3:621.3) and internal standard ^13C21-triolein (Q1: 923.8>Q3:617.3) were collected for 33 sec. The peak area was integrated by Xcalibur Quan software. The ratio between the ^13C18triolein generated in the reaction and spiked in internal standard ^13C21-triolein was used to generate percentage inhibition and IC50 values. Compound percentage inhibition was calculated by the following formula: Inhibition %=1-[(compound response−low control)/(high control−low control)]×100%. Potent compounds were titrated and IC50 were calculated by 4 parameter sigmoidal curve fitting formula.
DGAT2 activity was determined by measuring the amount of enzymatic product ^13C18-triolein (^13C-1,2,3-Tri(cis-9-octadecenoyl)glycerol) using the membrane prep mentioned above. The assay was carried out in ABgene 384-well assay plates in a final volume of 25 μL at rt. The assay mixture contained the following: assay buffer (100 mM Tris·Cl, pH 7.0, 20 mM MgCl2, 5% ethanol), 25 μM of diolein, 5 μM of ^13C oleoyl-CoA and 8 ng/μL of DGAT2 membrane.
`CC1(NC(=O)c2cnc3c(-c4cccc(OC(F)F)c4)nn(CC(O)C(F)(F)F)c3c2)CS(=O)(=O)C1` (single isomer, unassigned) [Example 67a, 3-(3-(difluoromethoxy)phenyl)-N-(3-methyl-1,1-dioxidothietan-3-yl)-1-(3,3,3-trifluoro-2-hydroxypropyl)-1H-pyrazolo[4,3-b]pyridine-6-carboxamide]: the IC50 is 73 nM.
Regarding `CC1(NC(=O)c2cnc3c(-c4cccc(OC(F)F)c4)nn(CC(O)C(F)(F)F)c3c2)CS(=O)(=O)C1` (single isomer, unassigned) [Example 67b, 3-(3-(difluoromethoxy)phenyl)-N-(3-methyl-1,1-dioxidothietan-3-yl)-1-(3,3,3-trifluoro-2-hydroxypropyl)-1H-pyrazolo[4,3-b]pyridine-6-carboxamide], the IC50 is 90 nM.
In the case of `CC(O)Cn1nc(-c2cccc(OC(F)F)c2)c2ncc(C(=O)NC3(C)CS(=O)(=O)C3)cc21` (single isomer, unassigned) [Example 68a, 3-(3-(difluoromethoxy)phenyl)-1-(2-hydroxypropyl)-N-(3-methyl-1,1-dioxidothietan-3-yl)-1H-pyrazolo[4,3-b]pyridine-6-carboxamide], the IC50 was 18 nM.
Regarding `CC(O)Cn1nc(-c2cccc(OC(F)F)c2)c2ncc(C(=O)NC3(C)CS(=O)(=O)C3)cc21` (single isomer, unassigned) [Example 68b, 3-(3-(difluoromethoxy)phenyl)-1-(2-hydroxypropyl)-N-(3-methyl-1,1-dioxidothietan-3-yl)-1H-pyrazolo[4,3-b]pyridine-6-carboxamide], the 50% inhibitory concentration (IC50) was 179 nM.
The same measure for `CC(C)n1nc(-c2cccc(OC(F)F)c2)c2ncc(C(=O)NC3(C(C)O)CCOCC3)cc21` (single isomer, unassigned) [Example 73a, 3-(3-(difluoromethoxy)phenyl)-N-(4-(1-hydroxyethyl)tetrahydro-2H-pyran-4-yl)-1-isopropyl-1H-pyrazolo[4,3-b]pyridine-6-carboxamide]: 119 nM; for `CC(C)n1nc(-c2cccc(OC(F)F)c2)c2ncc(C(=O)NC3(C(C)O)CCOCC3)cc21` (single isomer, unassigned) [Example 73b, 3-(3-(difluoromethoxy)phenyl)-N-(4-(1-hydroxyethyl)tetrahydro-2H-pyran-4-yl)-1-isopropyl-1H-pyrazolo[4,3-b]pyridine-6-carboxamide]: 74 nM; for `CC1(NC(=O)c2cnc3c(-c4cccc(OC(F)F)c4)nn(C4CCOCC4F)c3c2)CS(=O)(=O)C1` (single isomer, unassigned) [Example 75a, 3-(3-(difluoromethoxy)phenyl)-1-(3-fluorotetrahydro-2H-pyran-4-yl)-N-(3-methyl-1,1-dioxidothietan-3-yl)-1H-pyrazolo[4,3-b]pyridine-6-carboxamide]: 29 nM.
For the molecule `CC1(NC(=O)c2cnc3c(-c4cccc(OC(F)F)c4)nn(C4CCOCC4F)c3c2)CS(=O)(=O)C1` (single isomer, unassigned) [Example 75b, 3-(3-(difluoromethoxy)phenyl)-1-(3-fluorotetrahydro-2H-pyran-4-yl)-N-(3-methyl-1,1-dioxidothietan-3-yl)-1H-pyrazolo[4,3-b]pyridine-6-carboxamide], the IC50 was 9 nM.
Take `CC1(NC(=O)c2cnc3c(-c4cccc(OC(F)F)c4)nn(C4CCOC(C(F)(F)F)C4)c3c2)CS(=O)(=O)C1` (single isomer, unassigned) [Example 76a, 3-(3-(difluoromethoxy)phenyl)-N-(3-methyl-1,1-dioxidothietan-3-yl)-1-(2-(trifluoromethyl)tetrahydro-2H-pyran-4-yl)-1H-pyrazolo[4,3-b]pyridine-6-carboxamide]: the IC50 was determined as 21 nM.
